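Cultured in 96-well plates, cells were exposed to test compound for 48 hours across five concentrations. GI50 is the concentration that inhibits growth by half. TGI is the concentration that stops growth completely.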
Experiments:
Test in all cases: growth of human tumour cells (NCI), 48 h
[1] = system: 786-0 renal
[2] = system: A549 NSCLC
[3] = system: EKVX NSCLC
[4] = system: HL-60(TB) leukemia
[5] = system: HOP-62 NSCLC
[6] = system: HOP-92 NSCLC
[7] = system: M14 melanoma
[8] = system: SK-MEL-5 melanoma
[9] = system: SNB-75 CNS
[10] = system: UACC-62 melanoma

SMILES	GI50 [1] [µM]	TGI [1] [µM]	GI50 [2] [µM]	TGI [2] [µM]	GI50 [3] [µM]	TGI [3] [µM]	GI50 [4] [µM]	TGI [4] [µM]	GI50 [5] [µM]	TGI [5] [µM]	GI50 [6] [µM]	TGI [6] [µM]	GI50 [7] [µM]	TGI [7] [µM]	GI50 [8] [µM]	TGI [8] [µM]	GI50 [9] [µM]	TGI [9] [µM]	GI50 [10] [µM]	TGI [10] [µM]
COc1ccc(/C=C(/C(=O)N2CCN(c3ccccc3)CC2)c2cc(OC)c(OC)c(OC)c2)cc1O	4.1	> 100	0.764	> 100	0.631	> 100	0.239	0.575	0.55	> 100	22	> 100	0.315	24	0.361	11.8	0.293	> 100	0.332	> 100
C=CCCCCC/C=C\[C@H](O)C#CC#C/C=C/CO	29.3	82.2	21.2	45.4	52.7	> 100	3.64	24.1	> 100	> 100	52.8	> 100	86.2	> 100	38.5	> 100	> 100	> 100	26.2	> 100
CN(C)N=Nc1ccc(NC=O)cc1		> 100		> 100		> 100		> 100		> 100		> 100		> 100		> 100		> 100		> 100
O=C(Nc1ccc(Cl)cc1F)c1ccccc1O	3.44	> 100	3.6	> 100	1.96	12.5	2.53	6.16	2.74	21.7	1.42	4.59	3.45	16.7	1.69	3.48	3.26	> 100	2.08	9.24
O=c1c2sc(=S)n(-c3ccc(F)cc3)c2ncn1Cc1ccc(F)cc1F	80.5	> 100	92.1	> 100	> 100	> 100	> 100	> 100	> 100	> 100	44.8	> 100	> 100	> 100	84.3	> 100	94	> 100	> 100	> 100
COC(=O)c1cc2c(s1)C(=O)c1ccccc1-2		> 100		> 100		> 100		> 100		> 100		> 100		> 100		> 100		> 100		> 100
COC(=O)C(=Cc1cc(OC)ccc1OC)C(=O)OC		53.5		92		72.2		59.1		64.1		60		36.6		42.7		97		73.7
CCn1c(-c2nonc2N)nc2c(C#CC(C)(C)O)nc(OC[C@H](N)c3ccccc3)cc21	1.91	5.43	3.69	7.45	10.8	18.1	5.23	10.1	5.54	9.99	2.37	7.38	3.94	7.47	4.21	7.64	0.926	4.65	4.24	8.08
CO/N=C/c1cc(OC)c(OC)c(OC)c1		> 100		> 100		> 100		> 100		> 100		> 100		> 100		> 100		> 100		> 100
CCCN=C(N)NC#N		65.1		> 100		> 100		> 100		> 100		> 100		> 100		> 100		> 100		> 100
O=C(O)C1C2C=CC(O2)C1C(=O)NCc1ccccn1 (stereo not given)		> 100		> 100		> 100		> 100		> 100		> 100		> 100		> 100		> 100		> 100
COc1ccc(CN2C(=O)/C(=C\C(=O)c3ccc(OCCN4CCCCC4)cc3)c3ccccc32)cc1	1.66	3.11	15.9	31.2	4.94	19.6	2.35	6.43	20.2	35.4	1.64	3.89	1.83	3.85	11	23.5	12.8	27.6	1.67	3.13
CC1(C)COC(c2cccnc2/C=N/O)=N1		> 100		> 100		> 100		> 100		> 100		> 100		> 100		> 100		> 100		> 100
